Converted amounts (≈) assume the structure as drawn. Like-named read-outs stand apart in the source and are kept apart here.
Legend:
Assay type in all cases: cell-based
[1] = system: Fusarium moniliforme (Fm); assay: In vitro pathogen growth inhibition assay, Fm; conditions: Fusarium verticillioides
Summary of the method: (§1)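 Spores in 17% V8 liquid medium, or 1.5 mm Rs mycelial plugs in ¼ PDB, incubated with compound; final concentration checked by OD600 for precipitation. OD readings at 24 and 48 h, blank-subtracted, plus visual ratings; value is concentration giving ≥90% growth inhibition.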

Septoria tritici (St) = assay: In vitro pathogen growth inhibition assay, St; conditions: Zymoseptoria tritici, 48 h
Summary of the method: as §1

[2] = system: Collectotrichum graminicola (Cg); assay: In vitro pathogen growth inhibition assay, Cg; conditions: 48 h
Summary of the method: as §1

Diplodia maydis (Dm) = assay: In vitro pathogen growth inhibition assay, Dm; conditions: Stenocarpella maydis, 48 h
Summary of the method: as §1

Botrtyis cinerea (Bc) = assay: In vitro pathogen growth inhibition assay, Bc; conditions: 48 h
Summary of the method: as §1

[3] = system: Fusarium virguliforme (Fv); assay: In vitro pathogen growth inhibition assay, Fv
Summary of the method: as §1

Rhizoctonia solani (Rs) = assay: In vitro pathogen growth inhibition assay, Rs (mycelial plugs); conditions: Rhizoctonia solani, 48 h
Summary of the method: as §1

[4] = system: Phytophthora capsici (Pc); assay: In vitro pathogen growth inhibition assay, Pc; conditions: 48 h
Summary of the method: as §1

[5] = concentration sufficient to ≥90% inhibition of growth, 48 hours vs 2% DMSO control, read-out: Compound Concentration (ppm) for ≥90% inhibition, Fm
[6] = concentration sufficient to ≥90% inhibition of growth, 48 hours vs 2% DMSO control, read-out: Compound Concentration (ppm) for ≥90% inhibition, St
[7] = concentration sufficient to ≥90% inhibition of growth, 48 hours vs 2% DMSO control, read-out: Compound Concentration (ppm) for ≥90% inhibition, Cg
[8] = concentration sufficient to ≥90% inhibition of growth, 48 hours vs 2% DMSO control, read-out: Compound Concentration (ppm) for ≥90% inhibition, Dm
[9] = concentration sufficient to ≥90% inhibition of growth, 48 hours vs 2% DMSO control, read-out: Compound Concentration (ppm) for ≥90% inhibition, Bc
[10] = concentration sufficient to ≥90% inhibition of growth, 48 hours vs 2% DMSO control, read-out: Compound Concentration (ppm) for ≥90% inhibition, Fv
[11] = concentration sufficient to ≥90% inhibition of growth, 48 hours vs 2% DMSO control, read-out: Compound Concentration (ppm) for ≥90% inhibition, Rs
[12] = concentration sufficient to ≥90% inhibition of growth, 48 hours vs 2% DMSO control, read-out: Compound Concentration (ppm) for ≥90% inhibition, Pc
[13] = ≥90% inhibition, 48 hours vs 2% DMSO control, read-out: Compound Concentration (ppm) sufficient for ≥90% inhibition of growth, Fm
[14] = ≥90% inhibition, 48 hours vs 2% DMSO control, read-out: Compound Concentration (ppm) sufficient for ≥90% inhibition of growth, St
[15] = ≥90% inhibition, 48 hours vs 2% DMSO control, read-out: Compound Concentration (ppm) sufficient for ≥90% inhibition of growth, Cg
[16] = ≥90% inhibition, 48 hours vs 2% DMSO control, read-out: Compound Concentration (ppm) sufficient for ≥90% inhibition of growth, Dm
[17] = ≥90% inhibition, 48 hours vs 2% DMSO control, read-out: Compound Concentration (ppm) sufficient for ≥90% inhibition of growth, Bc
[18] = ≥90% inhibition, 48 hours vs 2% DMSO control, read-out: Compound Concentration (ppm) sufficient for ≥90% inhibition of growth, Fv
[19] = ≥90% inhibition, mycelial plugs, 48 hours vs 2% DMSO control, read-out: Compound Concentration (ppm) sufficient for ≥90% inhibition of growth, Rs
[20] = ≥90% inhibition, 48 hours vs 2% DMSO control, read-out: Compound Concentration (ppm) sufficient for ≥90% inhibition of growth, Pc
[21] = ≥90% growth inhibition, 48 hours, vs 2% DMSO control, read-out: Compound Concentration (ppm) sufficient for ≥90% inhibition of Fm
[22] = ≥90% growth inhibition, 48 hours, vs 2% DMSO control, read-out: Compound Concentration (ppm) sufficient for ≥90% inhibition of St
[23] = ≥90% growth inhibition, 48 hours, vs 2% DMSO control, read-out: Compound Concentration (ppm) sufficient for ≥90% inhibition of Cg
[24] = ≥90% growth inhibition, 48 hours, vs 2% DMSO control, read-out: Compound Concentration (ppm) sufficient for ≥90% inhibition of Dm
[25] = ≥90% growth inhibition, 48 hours, vs 2% DMSO control, read-out: Compound Concentration (ppm) sufficient for ≥90% inhibition of Bc
[26] = ≥90% growth inhibition, 48 hours, vs 2% DMSO control, read-out: Compound Concentration (ppm) sufficient for ≥90% inhibition of Fv
[27] = ≥90% growth inhibition, mycelial plugs, 48 hours, vs 2% DMSO control, read-out: Compound Concentration (ppm) sufficient for ≥90% inhibition of Rs
[28] = ≥90% growth inhibition, 48 hours, vs 2% DMSO control, read-out: Compound Concentration (ppm) sufficient for ≥90% inhibition of Pc

| Structure (SMILES) | IC90 [1, 13] [µg/mL] | IC90 (Septoria tritici (St); [14]) [µg/mL] | IC90 [2, 15] [µg/mL] | IC90 (Diplodia maydis (Dm); [16]) [µg/mL] | IC90 (Botrtyis cinerea (Bc); [17]) [µg/mL] | IC90 [3, 18] [µg/mL] | IC90 (Rhizoctonia solani (Rs); [19]) [µg/mL] | IC90 [4, 20] [µg/mL] | IC90 [1, 21] [µg/mL] | IC90 (Septoria tritici (St); [22]) [µg/mL] | IC90 [2, 23] [µg/mL] | IC90 (Diplodia maydis (Dm); [24]) [µg/mL] | IC90 (Botrtyis cinerea (Bc); [25]) [µg/mL] | IC90 [3, 26] [µg/mL] | IC90 (Rhizoctonia solani (Rs); [27]) [µg/mL] | IC90 [4, 28] [µg/mL] | further results |
| --- | --- | --- | --- | --- | --- | --- | --- | --- | --- | --- | --- | --- | --- | --- | --- | --- | --- |
| CCNC(=O)C(C)(C)n1c(=O)c2c(C)c(C(=O)OCC)sc2n(C[C@H](OC2CCOCC2)c2ccccc2OC)c1=O [Compound I-175] | – | – | – | – | – | – | – | – | – | – | – | – | – | – | – | – | IC90 [1, 5]: 10 µg/mL (≈ 16.6 µM); IC90 (Septoria tritici (St); [6]): > 50 µg/mL; IC90 [2, 7]: 50 µg/mL (≈ 83.1 µM); IC90 (Diplodia maydis (Dm); [8]): 10 µg/mL (≈ 16.6 µM); IC90 (Botrtyis cinerea (Bc); [9]): 2 µg/mL (≈ 3.32 µM); IC90 [3, 10]: 10 µg/mL (≈ 16.6 µM); IC90 (Rhizoctonia solani (Rs); [11]): > 50 µg/mL; IC90 [4, 12]: > 50 µg/mL |
| COc1ccc(F)cc1[C@H](Cn1c(=O)n(C(C)(C)C(=O)N2CCCCC2)c(=O)c2c(C)c(-n3cccn3)sc21)OC(C)C [Compound I-002] | 0.08 (≈ 0.131 µM) | > 10 | 2 (≈ 3.27 µM) | 0.4 (≈ 0.654 µM) | 0.4 (≈ 0.654 µM) | 0.4 (≈ 0.654 µM) | 0.4 (≈ 0.654 µM) | > 50 | – | – | – | – | – | – | – | – | – |
| COc1ccc(F)cc1[C@H](Cn1c(=O)n(C(C)(C)C(=O)N2CCCCC2)c(=O)c2c(C)c(-n3cccn3)sc21)OC1CCOCC1 [Compound I-166] | – | – | – | – | – | – | – | – | ≥ 0.08 | ≥ 50 | 2 (≈ 3.06 µM) | ≥ 2 | 2 (≈ 3.06 µM) | 2 (≈ 3.06 µM) | 10 (≈ 15.3 µM) | > 50 | – |
| CCOC(=O)c1sc2c(c1C)c(=O)n([C@H](C)C(N)=O)c(=O)n2C[C@H](OCCC#N)c1cc(F)ccc1OC [Compound I-228] | – | – | – | – | – | – | – | – | – | – | – | – | – | – | – | – | IC90 [1, 5]: 10 µg/mL (≈ 18.3 µM); IC90 (Septoria tritici (St); [6]): > 50 µg/mL; IC90 [2, 7]: > 50 µg/mL; IC90 (Diplodia maydis (Dm); [8]): > 50 µg/mL; IC90 (Botrtyis cinerea (Bc); [9]): 10 µg/mL (≈ 18.3 µM); IC90 [3, 10]: > 50 µg/mL; IC90 (Rhizoctonia solani (Rs); [11]): 2 µg/mL (≈ 3.66 µM); IC90 [4, 12]: > 50 µg/mL |
| COc1ccccc1[C@H](Cn1c(=O)n(C(C)(C)C(=O)N2CCCCC2)c(=O)c2c(C)c(-n3nccn3)sc21)OC1CCOCC1 [Compound I-033] | 0.08 (≈ 0.126 µM) | > 10 | ≥ 0.4 | ≥ 0.4 | 0.4 (≈ 0.628 µM) | 0.4 (≈ 0.628 µM) | 0.08 (≈ 0.126 µM) | > 50 | – | – | – | – | – | – | – | – | – |

Second part, led by results:

| IC90 [1, 13] [µg/mL] | IC90 (Septoria tritici (St); [14]) [µg/mL] | IC90 [2, 15] [µg/mL] | IC90 (Diplodia maydis (Dm); [16]) [µg/mL] | IC90 (Botrtyis cinerea (Bc); [17]) [µg/mL] | IC90 [3, 18] [µg/mL] | IC90 (Rhizoctonia solani (Rs); [19]) [µg/mL] | IC90 [4, 20] [µg/mL] | IC90 [1, 21] [µg/mL] | IC90 (Septoria tritici (St); [22]) [µg/mL] | IC90 [2, 23] [µg/mL] | IC90 (Diplodia maydis (Dm); [24]) [µg/mL] | IC90 (Botrtyis cinerea (Bc); [25]) [µg/mL] | IC90 [3, 26] [µg/mL] | IC90 (Rhizoctonia solani (Rs); [27]) [µg/mL] | IC90 [4, 28] [µg/mL] | Structure (SMILES) | further results |
| --- | --- | --- | --- | --- | --- | --- | --- | --- | --- | --- | --- | --- | --- | --- | --- | --- | --- |
| 0.08 (≈ 0.143 µM) | > 50 | > 50 | 0.4 (≈ 0.716 µM) | 0.4 (≈ 0.716 µM) | 0.4 (≈ 0.716 µM) | ≥ 2 | > 50 | – | – | – | – | – | – | – | – | COc1ccc(F)cc1[C@H](Cn1c(=O)n(CC(=O)NC(C)C)c(=O)c2c(C)c(-n3nccn3)sc21)OC(C)C [Compound I-060] | – |
| – | – | – | – | – | – | – | – | 2 (≈ 3.54 µM) | > 50 | > 50 | > 50 | 10 (≈ 17.7 µM) | ≥ 2 | 10 (≈ 17.7 µM) | > 50 | Cc1c(-n2nccn2)sc2c1c(=O)n(C(C)(C)C(=O)NC(C)C)c(=O)n2C[C@H](OCCC#N)c1ccccc1O [Compound I-301] | – |
| 0.08 (≈ 0.133 µM) | ≥ 2 | 0.08 (≈ 0.133 µM) | 0.08 (≈ 0.133 µM) | 0.4 (≈ 0.666 µM) | 0.4 (≈ 0.666 µM) | 0.4 (≈ 0.666 µM) | > 50 | – | – | – | – | – | – | – | – | COc1ccc(F)cc1[C@H](Cn1c(=O)n(C(C)(C)C(=O)NC(C)C)c(=O)c2c(C)c(-n3nccn3)sc21)OCC(C)C [Compound I-026] | – |
| – | – | – | – | – | – | – | – | 2 (≈ 3.28 µM) | > 50 | 2 (≈ 3.28 µM) | ≥ 2 | 2 (≈ 3.28 µM) | 2 (≈ 3.28 µM) | 2 (≈ 3.28 µM) | > 50 | COc1ccc(F)cc1[C@H](Cn1c(=O)n(C(C)(C)C(=O)N2CCCC2)c(=O)c2c(C)c(-n3nccn3)sc21)OCCC#N [Compound I-195] | – |
| – | – | – | – | – | – | – | – | ≥ 0.08 | > 50 | ≥ 0.4 | 2 (≈ 3.25 µM) | 2 (≈ 3.25 µM) | 2 (≈ 3.25 µM) | ≥ 0.4 | 50 (≈ 81.3 µM) | COc1ccc(F)cc1[C@H](Cn1c(=O)n(C(C)(C)C(=O)N2CCCC2)c(=O)c2c(C)c(-n3nccn3)sc21)OC[C@@H](C)O [Compound I-167] | – |
